According to patent publication US11939314B2, “Quinolin-2-one derivatives” (MERCK PATENT GMBH, priority 2016, dated 2024):

Legend:
c-Kit(V654A) = molecular target: T1, c-Kit(V654A) (Homo sapiens, UniProt P10721, V654A); experiment: c-Kit(V654A) assay; format: biochemical; settings: recombinant human c-Kit aa 544-end, 200 μM ATP, 1.4E-06 means 1.4×10^−6, read-out: Inhibition (IC50) of c-KIT (V654A)
T1 construct: amino acids 544-end containing the V654A mutation; GST (N)
Procedure, shortened: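 Radiometric filter-binding read-out: substrate 33P incorporation counted by scintillation after P30 filtermat washes in 75 mM phosphoric acid and methanol. Enzyme: N-GST recombinant human c-Kit aa 544-end carrying V654A.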

PDGFRalpha(V561D) = molecular target: T2, PDGFRalpha(V561D) (Homo sapiens, UniProt P16234, V561D); experiment: PDGFRalpha(V561D) assay; format: biochemical; settings: recombinant human PDGFRalpha aa 550-end, 200 μM ATP, 1.4E-06 means 1.4×10^−6, read-out: Inhibition (IC50) of PDGFRα (V561D)
T2 construct: recombinant human PDGFRalpha, amino acids 550end containing the V561 D mutation; 6His (N)
T2 sequence (P16234 550-1089 V561D): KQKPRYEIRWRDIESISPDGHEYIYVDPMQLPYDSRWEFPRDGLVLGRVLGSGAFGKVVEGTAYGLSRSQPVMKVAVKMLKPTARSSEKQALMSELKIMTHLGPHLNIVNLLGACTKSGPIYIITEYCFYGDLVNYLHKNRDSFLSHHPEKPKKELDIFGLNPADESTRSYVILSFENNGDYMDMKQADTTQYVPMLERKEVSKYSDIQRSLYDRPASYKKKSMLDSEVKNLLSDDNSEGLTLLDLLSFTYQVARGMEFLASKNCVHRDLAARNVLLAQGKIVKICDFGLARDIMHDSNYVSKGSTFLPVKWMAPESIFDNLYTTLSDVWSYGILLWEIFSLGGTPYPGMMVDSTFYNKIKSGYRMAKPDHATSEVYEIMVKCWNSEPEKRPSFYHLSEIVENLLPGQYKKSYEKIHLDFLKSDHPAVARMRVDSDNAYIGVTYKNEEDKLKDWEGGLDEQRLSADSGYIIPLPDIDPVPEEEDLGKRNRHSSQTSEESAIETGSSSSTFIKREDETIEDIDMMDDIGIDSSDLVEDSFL
Procedure, shortened: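 Radiometric filter-binding assay: substrate phosphorylation by recombinant N-His-tagged human PDGFRα 550-end V561D was quenched with 3% phosphoric acid after 40 min at room temperature, then counted.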

T1 sequence (P10721 544-976 V654A): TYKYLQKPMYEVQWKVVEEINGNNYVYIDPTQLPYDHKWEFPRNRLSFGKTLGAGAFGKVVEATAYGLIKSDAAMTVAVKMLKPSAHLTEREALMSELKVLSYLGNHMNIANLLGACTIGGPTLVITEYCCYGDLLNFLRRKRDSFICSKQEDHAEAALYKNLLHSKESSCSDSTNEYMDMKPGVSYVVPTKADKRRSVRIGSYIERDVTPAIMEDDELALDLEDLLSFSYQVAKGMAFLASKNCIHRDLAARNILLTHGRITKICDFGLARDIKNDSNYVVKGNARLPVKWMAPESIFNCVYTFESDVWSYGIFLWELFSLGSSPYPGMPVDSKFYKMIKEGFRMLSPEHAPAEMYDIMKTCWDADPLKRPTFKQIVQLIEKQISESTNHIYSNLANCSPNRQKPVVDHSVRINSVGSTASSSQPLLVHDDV

IC50 (c-Kit(V654A)) | IC50 (PDGFRalpha(V561D)) | Compound
9.5 nM | 0.5 nM | CC(=O)O[C@H]1CCN(C(=O)c2ccc(-n3cc(-c4cc5cc(F)ccc5[nH]c4=O)nn3)cc2)C1 [A180, acetic acid (S)-1-{4-[4-(6-fluoro-2-oxo-1,2-dihydro-quinolin-3-yl)-[1,2,3]triazol-1-yl]-benzoyl}-pyrrolidin-3-yl ester]
16 nM | 64 nM | CO[C@H]1CCN(C(=O)c2ccc(-n3cc(-c4cc5cc(F)ccc5[nH]c4=O)nn3)cc2)C1 [A112, 6-fluoro-3-{1-[4-((S)-3-methoxy-pyrrolidine-1-carbonyl)-phenyl]-1H-[1,2,3]triazol-4-yl}-1H-quinolin-2-one]
9 nM | 46 nM | O=C(c1ccc(-n2cc(-c3cc4c(F)cccc4[nH]c3=O)nn2)cc1)N1CCNCC1 [A119, 5-fluoro-3-{1-[4-(piperazine-1-carbonyl)-phenyl]-1H-[1,2,3]triazol-4-yl}-1H-quinolin-2-one]
40 nM | 76 nM | O=C(c1ccc(-n2cc(-c3cc4cc(Cl)ccc4[nH]c3=O)nn2)cc1)N1CCN(C2COC2)CC1 [A250, 6-chloro-3-{1-[4-(4-oxetan-3-yl-piperazine-1-carbonyl)-phenyl]-1H-[1,2,3]triazol-4-yl}-1H-quinolin-2-one]
230 nM | 200 nM | CO[C@@H]1CCCN(C(=O)c2ccc(-n3cc(-c4cc5cc(F)c(F)cc5[nH]c4=O)nn3)cc2)C1 [A192, 6,7-difluoro-3-{1-[4-((R)-3-methoxy-piperidine-1-carbonyl)-phenyl]-1H-[1,2,3]triazol-4-yl}-1H-quinolin-2-one]
14 nM | 28 nM | O=C(COc1ccc(-n2cc(-c3cc4cc(F)c(F)cc4[nH]c3=O)nn2)cc1)N1CCNCC1 [A140, 6,7-difluoro-3-{1-[4-(2-oxo-2-piperazin-1-yl-ethoxy)-phenyl]-1H-[1,2,3]triazol-4-yl}-1H-quinolin-2-one]
36 nM | 76 nM | CCN(CC)CCNC(=O)c1ccc(-n2cc(-c3cc4cc(F)c(F)cc4[nH]c3=O)nn2)cc1 [A187, N-(2-diethylamino-ethyl)-4-[4-(6,7-difluoro-2-oxo-1,2-dihydro-quinolin-3-yl)-[1,2,3]triazol-1-yl]-benzamide]
14 nM | 5 nM | CN1CCN(c2ccc(-n3cc(-c4cc5cc(F)ccc5[nH]c4=O)nn3)cc2)CC1 [A70, 6-fluoro-3-{1-[4-(4-methyl-piperazin-1-yl)-phenyl]-1H-[1,2,3]triazol-4-yl}-1H-quinolin-2-one]
74 nM | 300 nM | O=C(c1ccc(-n2cc(-c3cc4cc(F)ccc4[nH]c3=O)nn2)cc1)N1CCCC2(COC2)C1 [A228, 6-fluoro-3-{1-[4-(2-oxa-6-aza-spiro[3.5]nonane-6-carbonyl)-phenyl]-1H-[1,2,3]triazol-4-yl}-1H-quinolin-2-one]
180 nM | 140 nM | COC[C@@H]1CCN(C(=O)c2ccc(-n3cc(-c4cc5cc(F)c(F)cc5[nH]c4=O)nn3)cc2)C1 [A200, 6,7-difluoro-3-{1-[4-((R)-3-methoxymethyl-pyrrolidine-1-carbonyl)-phenyl]-1H-[1,2,3]triazol-4-yl}-1H-quinolin-2-one]
27 nM | 4.3 nM | O=C(c1ccc(-n2cc(-c3cc4cc(Cl)ccc4[nH]c3=O)nn2)cc1)N1CCC2(CC1)COC2 [A256, 6-chloro-3-{1-[4-(2-oxa-7-aza-spiro[3.5]nonane-7-carbonyl)-phenyl]-1H-[1,2,3]triazol-4-yl}-1H-quinolin-2-one]
96 nM | 150 nM | CO[C@@H]1CC[C@H](Oc2ccc(-n3cc(-c4cc5cc(Cl)ccc5[nH]c4=O)nn3)cc2)C1 (stereo in doubt) [A356, 6-chloro-3-{1-[4-((1S,3R)-3-methoxy-cyclopentyloxy)-phenyl]-1H-[1,2,3]triazol-4-yl}-1H-quinolin-2-one]
36 nM | 94 nM | O=C(c1ccc(-n2cc(-c3cc4cc(F)ccc4[nH]c3=O)nn2)cc1)N1CCC2(COC2)C1 [A205, 6-fluoro-3-{1-[4-(2-oxa-6-aza-spiro[3.4]octane-6-carbonyl)-phenyl]-1H-[1,2,3]triazol-4-yl}-1H-quinolin-2-one]
20 nM | 29 nM | O=C(c1ccc(-n2cc(-c3cc4c(F)cc(F)cc4[nH]c3=O)nn2)cc1)N1CCOCC1 [A90, 5,7-difluoro-3-{1-[4-(morpholine-4-carbonyl)-phenyl]-1H-[1,2,3]triazol-4-yl}-1H-quinolin-2-one]
49 nM | 91 nM | CO[C@@H]1CCCN(C(=O)c2ccc(-n3cc(-c4cc5cc(F)ccc5[nH]c4=O)nn3)cc2)C1 [A194, 6-fluoro-3-{1-[4-((R)-3-methoxy-piperidine-1-carbonyl)-phenyl]-1H-[1,2,3]triazol-4-yl}-1H-quinolin-2-one]
23 nM | 45 nM | CO[C@@H]1C[C@H](CO)N(C(=O)c2ccc(-n3cc(-c4cc5cc(Cl)ccc5[nH]c4=O)nn3)cc2)C1 [A247, 6-chloro-3-{1-[4-((2R,4R)-2-hydroxymethyl-4-methoxy-pyrrolidine-1-carbonyl)-phenyl]-1H-[1,2,3]triazol-4-yl}-1H-quinolin-2-one]

IC50 (c-Kit(V654A)) | IC50 (PDGFRalpha(V561D)) | Compound
82 nM | 32 nM | COc1ccc(-n2cc(-c3cc4ccccc4[nH]c3=O)nn2)cc1 [A10, 3-[1-(4-methoxy-phenyl)-1H-[1,2,3]triazol-4-yl]-1H-quinolin-2-one]
17 nM | 1.4 nM | O=C(c1ccc(-n2cc(-c3cc4cc(F)ccc4[nH]c3=O)nn2)cc1)N1CCC(F)(F)C1 [A267, 3-{1-[4-(3,3-difluoro-pyrrolidine-1-carbonyl)-phenyl]-1H-[1,2,3]triazol-4-yl}-6-fluoro-1H-quinolin-2-one]
3200 nM | 580 nM | COc1cc(-n2cc(-c3cc4ccccc4[nH]c3=O)nn2)cc(OC)c1OC [A38, 3-[1-(3,4,5-trimethoxy-phenyl)-1H-[1,2,3]triazol-4-yl]-1H-quinolin-2-one]
65 nM | 470 nM | O=C(c1ccc(-n2cc(-c3cc4cc(F)ccc4[nH]c3=O)nn2)cc1)N1CCCCC12COC2 [A245, 6-fluoro-3-{1-[4-(2-oxa-5-aza-spiro[3.5]nonane-5-carbonyl)-phenyl]-1H-[1,2,3]triazol-4-yl}-1H-quinolin-2-one]
34 nM | 6 nM | O=C(c1cccc(-n2cc(-c3cc4cc(F)ccc4[nH]c3=O)nn2)c1)N1CCNCC1 [A125, 6-fluoro-3-{1-[3-(piperazine-1-carbonyl)-phenyl]-1H-[1,2,3]triazol-4-yl}-1H-quinolin-2-one]
73 nM | 5 nM | O=C(c1ccc(-n2cc(-c3cc4cc(F)cnc4[nH]c3=O)nn2)cc1)N1CCNCC1 [A122, 6-fluoro-3-{1-[4-(piperazine-1-carbonyl)-phenyl]-1H-[1,2,3]triazol-4-yl}-1H-[1,8]naphthyridin-2-one]
72 nM | 79 nM | O=C(c1ccc(-n2cc(-c3cc4cc(F)ccc4[nH]c3=O)nn2)cc1)N1CCCCC1CO (centres unmarked) [A214, 6-fluoro-3-{1-[4-(2-hydroxymethyl-piperidine-1-carbonyl)-phenyl]-1H-[1,2,3]triazol-4-yl}-1H-quinolin-2-one]
15 nM | 5 nM | CN(C)C(=O)c1ccc(-n2cc(-c3cc4cc(F)ccc4[nH]c3=O)nn2)cc1 [A18, 4-[4-(6-fluoro-2-oxo-1,2-dihydro-quinolin-3-yl)-[1,2,3]triazol-1-yl]-N,N-dimethyl-benzamide]
760 nM | 230 nM | COCCNC(=O)c1ccc(-n2cc(-c3cc4cccnc4[nH]c3=O)nn2)cc1 [A9, N-(2-methoxy-ethyl)-4-[4-(2-oxo-1,2-dihydro-[1,8]naphthyridin-3-yl)-[1,2,3]triazol-1-yl]-benzamide]
23 nM | 20 nM | O=c1[nH]c2ccccc2cc1-c1cn(-c2ccc(OCCN3CCCC3)cc2)nn1 [A14, 3-{1-[4-(2-pyrrolidin-1-yl-ethoxy)-phenyl]-1H-[1,2,3]triazol-4-yl}-1H-quinolin-2-one]
240 nM | 44 nM | O=C(c1ccc(-n2cc(-c3cc4cnccc4[nH]c3=O)nn2)cc1)N1CCOCC1 [A41, 3-{1-[4-(morpholine-4-carbonyl)-phenyl]-1H-[1,2,3]triazol-4-yl}-1H-[1,6]naphthyridin-2-one]
73 nM | 92 nM | CN(C)[C@H]1CCCN(C(=O)c2ccc(-n3cc(-c4cc5cc(F)c(F)cc5[nH]c4=O)nn3)cc2)C1 [A329, 3-{1-[4-((S)-3-dimethylamino-piperidine-1-carbonyl)-phenyl]-1H-[1,2,3]triazol-4-yl}-6,7-difluoro-1H-quinolin-2-one]
120 nM | 44 nM | C=C(C)c1ccc(-n2cc(-c3cc4ccccc4[nH]c3=O)nn2)cc1 [A80, 3-[1-(4-isopropenyl-phenyl)-1H-[1,2,3]triazol-4-yl]-1H-quinolin-2-one]
3.8 nM | 2.8 nM | O=C(COc1ccc(-n2cc(-c3cc4cc(F)ccc4[nH]c3=O)nn2)cc1)N1CCNCC1 [A141, 6-fluoro-3-{1-[4-(2-oxo-2-piperazin-1-yl-ethoxy)-phenyl]-1H-[1,2,3]triazol-4-yl}-1H-quinolin-2-one]
3 nM | 1 nM | CN1CCN(C(=O)c2ccc(-n3cc(-c4cc5cc(Cl)ccc5[nH]c4=O)nn3)cc2)CC1 [A151, 6-chloro-3-{1-[4-(4-methyl-piperazine-1-carbonyl)-phenyl]-1H-[1,2,3]triazol-4-yl}-1H-quinolin-2-one]
